The text below walks through data of patent US10065941B2, “Aminotriazine derivative and pharmaceutical composition comprising the same” (Shionogi & Co., Ltd., priority 2013, dated 2018).

human P2X3 receptor, sequence (P56373 whole entry): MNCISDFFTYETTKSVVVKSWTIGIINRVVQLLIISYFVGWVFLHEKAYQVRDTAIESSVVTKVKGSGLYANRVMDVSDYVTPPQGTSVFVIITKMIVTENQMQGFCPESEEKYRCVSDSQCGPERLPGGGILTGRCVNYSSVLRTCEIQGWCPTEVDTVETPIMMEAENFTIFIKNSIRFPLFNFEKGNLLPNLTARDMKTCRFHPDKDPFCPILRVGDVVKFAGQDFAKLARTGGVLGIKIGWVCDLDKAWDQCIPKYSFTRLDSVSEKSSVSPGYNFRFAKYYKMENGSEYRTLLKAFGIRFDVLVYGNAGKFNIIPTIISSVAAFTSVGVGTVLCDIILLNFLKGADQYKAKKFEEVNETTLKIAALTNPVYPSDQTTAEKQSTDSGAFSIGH

This experiment has as its target human P2X3 receptor (Homo sapiens (Human), UniProt P56373). The experiment can be described thus: Evaluation of human P2X3 receptor inhibitory activity (Test Example 1). It is filed as cell-based. The settings on record: C6BU-1 cell transfected with human P2X3 receptor gene, FLIPR 384. The gist of the method:
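FLIPR calcium read-out: signal taken as peak fluorescence after ATP addition divided by starting fluorescence, and IC50 calculated from it. Compound added 5 min before 150 nM ATP solution (pre-dispense stock) to Fluo-3-AM-loaded C6BU-1 cells stably transfected with human P2X3; HEPES buffer pH 7.5 with probenecid.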
`COC(=O)C(C)(C)Cn1c(=O)[nH]/c(=N\c2ccc(Oc3ccc(C(F)(F)F)nn3)cc2)n(Cc2ccc(Cl)cc2)c1=O` [Compound R-029] showed an IC50 of 7 nM. With `C[C@@H](Cn1c(=O)[nH]/c(=N\c2ccc(Oc3ccc(C(F)(F)F)nn3)cc2)n(Cc2ccc(Cl)cc2)c1=O)C(=O)O` [Compound R-030], half-maximal inhibition (IC50) required 8 nM.

With `CC(C)(Cn1c(=O)[nH]/c(=N\c2ccc(Oc3ccc(C(F)(F)F)nn3)cc2)n(Cc2ccc(Cl)cc2)c1=O)C(=O)O` [Compound R-031], 12 nM corresponded to half-maximal inhibition (IC50).

For `COc1cc(Oc2ccc(/N=c3\[nH]c(=O)n(C[C@H](C)C(=O)O)c(=O)n3Cc3ccc(Cl)cc3)cc2)ccn1` [Compound R-032], the IC50 turned out to be 4 nM.

`COC(=O)[C@@H](C)Cn1c(=O)[nH]/c(=N\c2ccc(Oc3cccnn3)c(F)c2)n(Cc2ccc(Cl)cc2)c1=O` [Compound R-033] had a concentration for half-maximal inhibition (IC50) of 6 nM. In the case of `COC(=O)C(C)(C)Cn1c(=O)[nH]/c(=N\c2ccc(Oc3cccnn3)c(F)c2)n(Cc2ccc(Cl)cc2)c1=O` [Compound R-034], the midpoint of inhibition, the IC50, lay at 5 nM.

For the compound `COC(=O)[C@@H](C)Cn1c(=O)[nH]/c(=N\c2ccc(Oc3cnc(C(F)(F)F)cn3)cc2)n(Cc2ccc(Cl)cc2)c1=O` [Compound R-035], the IC50 was 8 nM. The result for `COC(=O)C(C)(C)Cn1c(=O)[nH]/c(=N\c2ccc(Oc3cnc(C(F)(F)F)cn3)cc2)n(Cc2ccc(Cl)cc2)c1=O` [Compound R-036] reads 11 nM; that for `C[C@@H](Cn1c(=O)[nH]/c(=N\c2ccc(Oc3cccnn3)c(F)c2)n(Cc2ccc(Cl)cc2)c1=O)C(=O)O` [Compound R-037], 7 nM; that for `CC(C)(Cn1c(=O)[nH]/c(=N\c2ccc(Oc3cccnn3)c(F)c2)n(Cc2ccc(Cl)cc2)c1=O)C(=O)O` [Compound R-038], 7 nM. The result for `C[C@@H](Cn1c(=O)[nH]/c(=N\c2ccc(Oc3cnc(C(F)(F)F)cn3)cc2)n(Cc2ccc(Cl)cc2)c1=O)C(=O)O` [Compound R-039] reads 6 nM.

Regarding `COC(=O)[C@@H](C)Cn1c(=O)[nH]/c(=N\c2ccc(Oc3cc(F)nc(F)c3)cc2)n(Cc2ccc(Cl)cc2)c1=O` [Compound R-040], the IC50 is 7 nM. In turn, `COC(=O)C(C)(C)Cn1c(=O)[nH]/c(=N\c2ccc(Oc3cc(F)nc(F)c3)cc2)n(Cc2ccc(Cl)cc2)c1=O` [Compound R-041] came in with an IC50 of 11 nM. The result for `COC(=O)[C@@H](C)Cn1c(=O)[nH]/c(=N\c2ccc(Oc3ccnc(C)n3)cc2)n(Cc2ccc(Cl)cc2)c1=O` [Compound R-042] reads 5 nM; that for `COC(=O)C(C)(C)Cn1c(=O)[nH]/c(=N\c2ccc(Oc3ccnc(C)n3)cc2)n(Cc2ccc(Cl)cc2)c1=O` [Compound R-043], 5 nM; that for `Cc1nccc(Oc2ccc(/N=c3\[nH]c(=O)n(C[C@H](C)C(=O)O)c(=O)n3Cc3ccc(Cl)cc3)cc2)n1` [Compound R-044], 10 nM. In the case of `Cc1nccc(Oc2ccc(/N=c3\[nH]c(=O)n(CC(C)(C)C(=O)O)c(=O)n3Cc3ccc(Cl)cc3)cc2)n1` [Compound R-045] it was 14 nM; in that of `COC(=O)[C@@H](C)Cn1c(=O)[nH]/c(=N\c2ccc(Oc3cc(Cl)ncn3)cc2)n(Cc2ccc(Cl)cc2)c1=O` [Compound R-046], 6 nM. For `COC(=O)C(C)(C)Cn1c(=O)[nH]/c(=N\c2ccc(Oc3cc(Cl)ncn3)cc2)n(Cc2ccc(Cl)cc2)c1=O` [Compound R-047], inhibition was half-maximal at 9 nM (IC50). This IC50 lies about 1.5-fold higher than the previous one. In the case of `COC(=O)[C@@H](C)Cn1c(=O)[nH]/c(=N\c2ccc(Oc3cnccn3)c(F)c2)n(Cc2ccc(Cl)cc2)c1=O` [Compound R-048] it was 6 nM. `COC(=O)C(C)(C)Cn1c(=O)[nH]/c(=N\c2ccc(Oc3cnccn3)c(F)c2)n(Cc2ccc(Cl)cc2)c1=O` [Compound R-049] yielded an IC50 of 8 nM. The IC50 values of the last two compounds are within 1.5-fold of each other.

`COc1cc(Oc2ccc(/N=c3\[nH]c(=O)n(C[C@H](C)C(=O)O)c(=O)n3Cc3ccc(Cl)cc3)cc2)ncn1` [Compound R-050] yielded an IC50 of 14 nM. This IC50 lies about 1.8-fold higher than the previous one. In the case of `CCOC(=O)c1cnc(Oc2ccc(/N=c3\[nH]c(=O)n(CC)c(=O)n3Cc3ccc(Cl)cc3)cc2)cc1Cl` [Compound R-053] it was 52 nM; in that of `CCn1c(=O)[nH]/c(=N\c2ccc(Oc3cc(Cl)c(C(=O)O)cn3)cc2)n(Cc2ccc(Cl)cc2)c1=O` [Compound R-054], 26 nM. The result for `C[C@@H](Cn1c(=O)[nH]/c(=N\c2ccc(Oc3cnccn3)c(F)c2)n(Cc2ccc(Cl)cc2)c1=O)C(=O)O` [Compound R-055] reads 7 nM; that for `CC(C)(Cn1c(=O)[nH]/c(=N\c2ccc(Oc3cnccn3)c(F)c2)n(Cc2ccc(Cl)cc2)c1=O)C(=O)O` [Compound R-056], 10 nM. The result for `C[C@@H](Cn1c(=O)[nH]/c(=N\c2ccc(Oc3cc(F)nc(F)c3)cc2)n(Cc2ccc(Cl)cc2)c1=O)C(=O)O` [Compound R-057] reads 6 nM; that for `COc1cc(Oc2ccc(/N=c3\[nH]c(=O)n(C[C@H](C)C(=O)O)c(=O)n3Cc3ccc(Cl)cc3)cc2)cc(F)n1` [Compound R-058], 4 nM; that for `COC(=O)[C@@H](C)Cn1c(=O)[nH]/c(=N\c2ccc(Oc3ncccn3)cc2)n(Cc2ccc(Cl)cc2)c1=O` [Compound R-059], 5 nM. In turn, `CC(C)(Cn1c(=O)[nH]/c(=N\c2ccc(Oc3ncccn3)cc2)n(Cc2ccc(Cl)cc2)c1=O)C(=O)O` [Compound R-060] gave an IC50 of 16 nM. The result for `COc1nccc(Oc2ccc(/N=c3\[nH]c(=O)n(C[C@H](C)C(=O)O)c(=O)n3Cc3ccc(Cl)cc3)cc2)n1` [Compound R-061] reads 7 nM; that for `CCOC(=O)[C@H]1C[C@@H](Oc2ccc(/N=c3\[nH]c(=O)n(CC)c(=O)n3Cc3ccc(Cl)cc3)cc2)C1` [Compound R-062], 318 nM; that for `CCn1c(=O)[nH]/c(=N\c2ccc(O[C@H]3C[C@@H](C(=O)O)C3)cc2)n(Cc2ccc(Cl)cc2)c1=O` [Compound R-063], 456 nM. The result for `CCn1c(=O)[nH]/c(=N\c2ccc(Oc3ccc(C(=O)OC)c(Cl)n3)cc2)n(Cc2ccc(Cl)cc2)c1=O` [Compound R-064] reads 12 nM. In the case of `CCn1c(=O)[nH]/c(=N\c2ccc(Oc3ccc(C(=O)O)c(Cl)n3)cc2)n(Cc2ccc(Cl)cc2)c1=O` [Compound R-066] it was 58 nM; in that of `CCc1[nH]c2ccc(/N=c3\[nH]c(=O)n(C[C@H](C)C(=O)OC)c(=O)n3Cc3ccc(Cl)cc3)cc2c1C` [Compound R-068], 40 nM; in that of `CCc1[nH]c2ccc(/N=c3\[nH]c(=O)n(CC(C)(C)C(=O)OC)c(=O)n3Cc3ccc(Cl)cc3)cc2c1C` [Compound R-069], 51 nM. In turn, `CC(C)(Cn1c(=O)[nH]/c(=N\c2ccc(Oc3cc(F)nc(F)c3)cc2)n(Cc2ccc(Cl)cc2)c1=O)C(=O)O` [Compound R-070] had an IC50 of 7 nM. This IC50 is about 7.3-fold lower than that of the compound before. The result for `COc1cc(Oc2ccc(/N=c3\[nH]c(=O)n(CC(C)(C)C(=O)O)c(=O)n3Cc3ccc(Cl)cc3)cc2)cc(F)n1` [Compound R-071] reads 6 nM; that for `COC(=O)[C@@H](C)Cn1c(=O)[nH]/c(=N\c2ccc(OC3CCC3)c(F)c2)n(Cc2ccc(Cl)cc2)c1=O` [Compound R-072], 16 nM; that for `COC(=O)C(C)(C)Cn1c(=O)[nH]/c(=N\c2ccc(OC3CCC3)c(F)c2)n(Cc2ccc(Cl)cc2)c1=O` [Compound R-073], 31 nM.
